# According to ChEMBL document CHEMBL3627717, “Multivalent LKγ-PNA oligomers bind to a human telomere DNA G-rich sequence to form quadruplexes” (Bioorg Med Chem Lett, 2015):
# Test system: DNA
# Experiment: Binding affinity to human truncated telomeric DNA1 assessed as melting temperature at 20 uM by UV melting curve analysis (reference value: 58.9 +/- 0.3 degC)
# Assay type: nucleic-acid assay
row,Tm,Structure (SMILES)
1,57.3 °C,CC(=O)NCCN(CC(=O)NCCN(CC(=O)NCCN(CC(=O)NCCN(CC(=O)NCCN(CC(=O)NC(CCCCN(C)C)C(N)=O)C(=O)Cn1cc(C)c(=O)[nH]c1=O)C(=O)Cn1cnc2c(=O)[nH]c(N)nc21)C(=O)Cn1cnc2c(=O)[nH]c(N)nc21)C(=O)Cn1cnc2c(=O)[nH]c(N)nc21)C(=O)Cn1cc(C)c(=O)[nH]c1=O (centres undefined)
2,58.4 °C,CC(=O)NCCN(CC(=O)NC(CCCCN)CN(CC(=O)NCCN(CC(=O)NC(CCCCN)CN(CC(=O)NCCN(CC(=O)NC(CCCCN(C)C)C(N)=O)C(=O)Cn1cc(C)c(=O)[nH]c1=O)C(=O)Cn1cnc2c(=O)[nH]c(N)nc21)C(=O)Cn1cnc2c(=O)[nH]c(N)nc21)C(=O)Cn1cnc2c(=O)[nH]c(N)nc21)C(=O)Cn1cc(C)c(=O)[nH]c1=O (centres undefined)
3,59.1 °C,CC(=O)NCCN(CC(=O)NC(CCCCN)CN(CC(=O)NC(CCCCN)CN(CC(=O)NC(CCCCN)CN(CC(=O)NCCN(CC(=O)NC(CCCCN(C)C)C(N)=O)C(=O)Cn1cc(C)c(=O)[nH]c1=O)C(=O)Cn1cnc2c(=O)[nH]c(N)nc21)C(=O)Cn1cnc2c(=O)[nH]c(N)nc21)C(=O)Cn1cnc2c(=O)[nH]c(N)nc21)C(=O)Cn1cc(C)c(=O)[nH]c1=O (centres undefined)
4,60.2 °C,CC(=O)NCCN(CC(=O)NCCN(CC(=O)NC(CCCCN)CN(CC(=O)NCCN(CC(=O)NCCN(CC(=O)NC(CCCCN(C)C)C(N)=O)C(=O)Cn1cc(C)c(=O)[nH]c1=O)C(=O)Cn1cnc2c(=O)[nH]c(N)nc21)C(=O)Cn1cnc2c(=O)[nH]c(N)nc21)C(=O)Cn1cnc2c(=O)[nH]c(N)nc21)C(=O)Cn1cc(C)c(=O)[nH]c1=O (centres undefined)
